One data set concerns HeLa cells. It is filed as cell-based, human. From the text: Transfection with the acrylate copolymer poly(HEA-co-acrylate), however, provided more promising results. […] Transfection studies with the HEA copolymer will continue at higher N/P ratios in hope of achieving transfection efficiency similar to that of PEI while maintaining limited toxicity.
The conditions of data set [1]: cited from earlier work.
The next data set deals with plasmid DNA. The experiment in a line: DNA binding by gel electrophoresis (gel shift assay). As to conditions: plasmid DNA 4.7 kb, equivalent molar ratios to HEA-quinine copolymer. For orientation: Mobility shift assays separate free from complexed probe on a gel.

Procedure for plasmid DNA: DNA Binding Studies by Gel Electrophoresis. After the 1 hour incubation period, the polyplex solutions of all N/P ratios (10 μL) were each mixed with a 30% glycerol solution in water (2 μL). The solutions were loaded into 0.6% agarose gel containing ethidium bromide (6 μL/100 mL TAE buffer) and run at 60 V for 60 minutes. The gel was visualized under UV transilluminator (λ=366 nm).
The first step in this process is to mix the polymer and pDNA together to form the polyplex. […] Once combined, the solution is left to incubate at room temperature for 1 hour. Polyplexes are formed with varying concentrations of polymer to DNA which are expressed by their N/P ratio. The N/P ratio expresses the molar ratio of cationic amine groups on the polymer (N) over the number of anionic phosphate groups of the DNA backbone (P). […]
Upon a slow addition of an aqueous polymer solution to an aqueous DNA solution (0.02 μg/μL) at a 1:1 v/v ratio, the polymer and DNA self-assemble to form polyplexes. The target concentration of the polymer in the polyplex solution was determined by the target N/P ratio which is the molar ratio of cationic amine groups on the polymer (N) to anionic phosphate groups of the DNA backbone (P). […]

As for poly(HEA-co-quinine) [HEA copolymer], the “toxicity (qualitative inspection)” value with HeLa cells is recorded as “much less toxic”. Turning to `C=C(C)C(=O)NCCN` [AEMA, N-(2-aminoethyl) methacrylamide], the “pKa of basic amine” value in data set [1] (basic tertiary amine of chloroquine and quinine, amine of AEMA) was 9.3. On to `C=C[C@H]1C[N@@]2CC[C@H]1C[C@H]2[C@H](O)c1ccnc2ccc(OC)cc12` [quinine], for which the “pKa of quinoline nitrogen” value in data set [1] (4-aminoquinoline nitrogen of chloroquine vs quinoline nitrogen of quinine) is given as 5.2. Also, the “ability to bind DNA in gel shift assay” value in the data set on plasmid DNA is recorded as “inability”.

Values taken from patent publication US11667784B2, “Copolymers including cinchona alkaloid components and one or more acrylamide or acrylate containing components, complexes containing the same, and methods of using the” (REGENTS OF THE UNIVERSITY OF MINNESOTA, priority 2017, dated 2023).
